Patent publication US20260373102A1, “INJECTABLE GUANFACINE FORMULATIONS AND METHODS” (Cumberland Pharmaceuticals Inc., priority 2023, published 2026)
Counter-ions that a name gives are not always drawn. Like-named read-outs stand apart in the source and are kept apart here.

Key:
Format in all cases: physicochemical
[1] = Guanfacine solubility at pH 7.0 and 8.0; conditions: for solubility at 1 h: sodium phosphate buffer, aqueous buffer, 0.22 μm filtered, HPLC, read-out: concentration of filtered sample (solubility)
Experimental: Stock solutions of acetic acid and sodium acetate were used for making another pH 4.0 sample and a pH 5.0 sample. For the pH 4.0 sample, 920 μL of acetic acid was added to 80 μL of sodium acetate and then the final solution was prepared as described above to achieve a 5 mM buffer concentration. For the pH 5.0 sample, 700 μL of acetic acid was added to 1,300 μL of sodium acetate and 1.0 mLs of that buffer stock solution was added to make a final buffer concentration of 20 mM. With the exception of the buffer concentration, the pH 5.0 sample solution was completed as described above. Another sample solution was also made at 20 mM sodium acetate, pH 5.0, except the solvent was sparged with nitrogen and the head space of the vial was purged with nitrogen just prior to stoppering in order to remove air from the sample. For the pH 6.0 sample, a stock solution with 1,840 μL of 0.5 M sodium phosphate monobasic and 160 μL of 0.5 M sodium phosphate dibasic was made that was then diluted to 10 mM sodium phosphate by adding 1.0 mL to a final of 50 grams of solution. The solution was then completed as described previously.
Follow up testing was done to confirm that Guanfacine solubility was lower at pH 7.0 and 8.0 compared to the other samples made at pH levels≤6.0. For the pH 7.0 sample, a stock solution of 0.192 mL of 0.5 M sodium phosphate monobasic and 0.208 mLs of 0.5 M sodium phosphate dibasic was added to a glass tube followed by ~8.0 mLs of WFI and ~11.5 mg of Guanfacine-HCl. The solution was then adjusted to pH 7.0 with a solution of 0.2 N NaOH and adjusted to a volume of 10 mLs with WFI. For the pH 8.0 sample, a stock solution of 0.028 mL of 0.5 M sodium phosphate monobasic and 0.372 mLs of 0.5 M sodium phosphate dibasic was added to a glass tube followed by ~8.0 mLs of WFI and 11.48 mg of Guanfacine-HCl. The solution was then adjusted to pH 8.0 with a solution of 0.2 N NaOH and adjusted to a volume of 10 mLs with WFI. […] After 1 hour of sonication both samples were then filtered through a 0.22 μm PVDF filter and analyzed by HPLC. The concentration of the filtered pH 7.0 sample was ~0.35 mg/mL and the concentration of the filtered pH 8.0 sample was ~0.12 mg/mL. Therefore Guanfacine-HCl was less soluble at pH 7.0 and 8.0 compared to pH levels of 6.0 and lower.

[2] = Chemical stability of Guanfacine solutions in WFI at room temperature (vials, IV bags; HPLC); conditions: for degraded at 72 h: 0.5 mg/mL
Experimental: Guanfacine HCl powder (Laxai Avanti, Lot CPL-01-2013-014-033) was dissolved in WFI at a concentration of 0.5 mg/mL, passed through a 0.22 μm PVDF membrane in a biosafety cabinet, and then filled into 20 mL glass vials (particle free), or 150 ml polyolefin IV bags. The vials and IV bags were stored at room temperature conditions. The Guanfacine solutions in the vials and IV bags were at pH 5.7 and 5.0, respectively. After 72 hours at room temperature the Guanfacine solution in the vials formed a degradation product at 0.23% and the Guanfacine solution in the IV bags formed a degradation product at 0.16%.
Additionally, Guanfacine HCl (Laxai Avanti, Lot CPL-01-2013-014-033) was dissolved in WFI to a final concentration of 1.14 mg/mL, pH 4.5, passed through a 0.22 μm PVDF membrane in a biosafety cabinet, and then filled into glass vials. The glass vials were stored at room temperature conditions.

[3] = Compatibility of Guanfacine with Ropivacaine (appearance, pH, particulate matter); conditions: for Particulate Matter 10 μm / Particulate Matter 25 μm: Guanfacine only in WFI, filtered, before mixing; for concentration of Guanfacine freebase in the WFI control: HPLC
Experimental: The compatibility of 1.0 mg/mL and 0.1 mg/mL solutions of Guanfacine diluted into 30 mL Ropivacaine (USP 5 mg/mL Hospira, Lot-48-031-DK) was tested. A 0.1 and 1.0 mg/mL solution of Guanfacine free base in water for injection (WFI) was prepared. For every 1.148 mg of Guanfacine-HCl there is 1 mg of Guanfacine free base. For the 0.1 mg/mL solution, 57.4 mg of Guanfacine-HCl (lot #CPL-01-2013-014-033 Laxai Avanti) was dissolved in 400 mL of WFI (Hospira 1000 mL Bag, Lot 51-114-JT). Once fully dissolved, the solution was transferred to a 500 mL volumetric flask and q.s. to volume. For the 1.0 mg/mL solution, 114.8 mg of Guanfacine-HCl was dissolved in 80 mL of WFI. Once fully dissolved, the solution was transferred to a 100 mL volumetric flask and q.s. to volume.
Two glass vials were rinsed with WFI three times and emptied. The vials were rinsed with filtered Guanfacine solution three times, 5 mLs at a time. Approximately 35 mLs of the Guanfacine solutions were filtered into the vials using a Millex GV Sterile PVDF 0.22 μm syringe filter. The particulate content in the filtered Guanfacine solutions was determined prior to adding to the Ropivacaine vial using an APSS Liquiliaz particle counter. 1.2 mLs of filtered Guanfacine solutions at 0.1 or 1.0 mg/mL were injected into three separate vials containing Ropivacaine for each concentration (1:25 dilution of Guanfacine:Ropivacaine). The concentration of Guanfacine freebase in the WFI control was 0.10 mg/mL and 1.05 mg/mL, as determined by HPLC. The compatibility solutions were not able to be analyzed by the HPLC assay for Guanfacine because Guanfacine and Ropivacaine have very similar elution times and only the Ropivacaine peak could be seen on the chromatogram.
The appearance, pH, and particulate content for one vial at each concentration at time zero, 4 to 6 hours, and 24 hours was assessed and the results are reported in Table 1, below.

N=C(N)NC(=O)Cc1c(Cl)cccc1Cl [Guanfacine-HCl, N-amidino-2-(2,6-dichlorophenyl) acetamide monohydrochloride]
solubility compared to pH levels of 6.0 and lower ([1]; pH 7.0 and 8.0): less soluble
appearance of solution ([1]; pH 7.0 and pH 8.0 samples (both), after 1 hour of sonication): cloudy and contained precipitate
solubility at 1 h ([1]; pH 7.0, sodium phosphate, after 1 hour of sonication): ~350 µg/mL
solubility at 1 h ([1]; pH 8.0, sodium phosphate, after 1 hour of sonication): ~120 µg/mL
Area % of peak 2 ([2]; 1.14 mg/mL Guanfacine-HCl in WFI, pH 4.5, glass vials, 1 week, RRT 1.44): 0.02%
Area % of peak 3 (degradation product) ([2]; 1.14 mg/mL Guanfacine-HCl in WFI, pH 4.5, glass vials, 1 week, RRT 8.72, 10080 min): 0.26%
Area % of guanfacine peak (peak 1) ([2]; 1.14 mg/mL Guanfacine-HCl in WFI, pH 4.5, glass vials, time zero, RRT 1): 99.98%
Area % of peak 2 ([2]; 1.14 mg/mL Guanfacine-HCl in WFI, pH 4.5, glass vials, time zero, RRT 1.45): 0.02%
remaining at 168 h ([2]; water, 1.14 mg/mL Guanfacine-HCl in WFI, pH 4.5, glass vials, 1 week, RRT 1, read-out: Area % of guanfacine peak (peak 1)): 99.7%

N=C(N)NC(=O)Cc1c(Cl)cccc1Cl [Guanfacine]
compatibility with Ropivacaine ([3]; 1.0 mg/mL in WFI, 1:25 dilution of Guanfacine to Ropivacaine): compatible with Ropivacaine
Particulate Matter 10 μm ([3]; 0.1 mg/mL): 0 Particles per mL
Particulate Matter 25 μm ([3]; 0.1 mg/mL): 0 Particles per mL
Particulate Matter 10 μm ([3]; 1 mg/mL): 6 Particles per mL
Particulate Matter 25 μm ([3]; 1 mg/mL): 0 Particles per mL
concentration of Guanfacine freebase in the WFI control ([3]; nominal 0.1 mg/mL): 100 µg/mL
concentration of Guanfacine freebase in the WFI control ([3]; nominal 1.0 mg/mL): 1050 µg/mL
dissolution at 1 mg/mL ([1]; pH 7.0, 1 mg/mL): did not completely dissolve
Area % of guanfacine peak (peak 1) ([2]; 0.5 mg/mL in WFI in IV bags, pH 5.0, time zero, RRT 1.00): 99.94%
Area % of peak 2 (degradation product) ([2]; 0.5 mg/mL in WFI in IV bags, pH 5.0, time zero, RRT 8.77): 0.06%
Area % of peak 2 ([2]; 0.5 mg/mL in WFI in vials, pH 5.7, 24 hours, RRT 1.31): 0.02%
Area % of peak 2 ([2]; 0.5 mg/mL in WFI in vials, pH 5.7, 72 hours, RRT 1.32): 0.01%
Area % of peak 3 ([2]; 0.5 mg/mL in WFI in vials, pH 5.7, 72 hours, RRT 4.31): 0.01%
Area % of guanfacine peak (peak 1) ([2]; 0.5 mg/mL in WFI in vials, pH 5.7, time zero, RRT 1.00): 99.94%
Area % of peak 2 ([2]; 0.5 mg/mL in WFI in vials, pH 5.7, time zero, RRT 1.31): 0.01%
Area % of peak 4 (degradation product) ([2]; 0.5 mg/mL in WFI in vials, pH 5.7, time zero, RRT 8.58): 0.05%
remaining at 24 h ([2]; water, 0.5 mg/mL in WFI in IV bags, pH 5.0, 24 hours, RRT 1.00, read-out: Area % of guanfacine peak (peak 1)): 99.8%
degraded at 24 h ([2]; water, 0.5 mg/mL in WFI in IV bags, pH 5.0, 24 hours, RRT 8.79, read-out: Area % of peak 2 (degradation product)): 0.15%
remaining at 72 h ([2]; water, 0.5 mg/mL in WFI in IV bags, pH 5.0, 72 hours, RRT 1.00, read-out: Area % of guanfacine peak (peak 1)): 99.8%
remaining at 24 h ([2]; water, 0.5 mg/mL in WFI in vials, pH 5.7, 24 hours, RRT 1.00, read-out: Area % of guanfacine peak (peak 1)): 99.9%
degraded at 24 h ([2]; water, 0.5 mg/mL in WFI in vials, pH 5.7, 24 hours, RRT 8.58, read-out: Area % of peak 4 (degradation product)): 0.1%
remaining at 72 h ([2]; water, 0.5 mg/mL in WFI in vials, pH 5.7, 72 hours, RRT 1.00, read-out: Area % of guanfacine peak (peak 1)): 99.8%
degraded at 72 h ([2]; water, IV bags, pH 5.0, 72 hours at room temperature, read-out: degradation product formed): 0.16%
degraded at 168 h ([2]; water, glass vials, pH 4.5, one week at room temperature, 1.14 mg/mL, read-out: degradation product formed): 0.26%
degraded at 72 h ([2]; water, vials, pH 5.7, 72 hours at room temperature, read-out: degradation product formed): 0.23%
